The supplement of paper PMC11451515

Test system: SEM cells
Assay: cell viability relative to DMSO control; higher = less cytotoxic
Conditions: 48 h
Method in brief: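 Before seeding, each leukemia line was adapted for at least four passages in each medium. NOMO1 or SEM cells (500 cells/well) and P12-Ichikawa cells (1000 cells/well) went into 1536-well plates at 5 μl, then received library compounds in DMSO by pin dosing across 11 threefold concentrations, 47 μM to 0.79 nM. Readout was CellTiter-Glo One luminescence after 48 h at 37°C, and viability is given as a per-plate percentage of DMSO wells, with cell-free wells as background.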

[1] = HPLM + 10% dialyzed FBS, 0.000781 µM
[2] = HPLM + 10% dialyzed FBS, 0.00234 µM
[3] = HPLM + 10% dialyzed FBS, 0.00702 µM
[4] = HPLM + 10% dialyzed FBS, 0.0211 µM
[5] = HPLM + 10% dialyzed FBS, 0.0632 µM
[6] = HPLM + 10% dialyzed FBS, 0.19 µM
[7] = HPLM + 10% dialyzed FBS, 0.569 µM
[8] = HPLM + 10% dialyzed FBS, 1.71 µM
[9] = HPLM + 10% dialyzed FBS, 5.12 µM
[10] = HPLM + 10% dialyzed FBS, 15.4 µM
[11] = HPLM + 10% dialyzed FBS, 46.1 µM
[12] = RPMI 5 mM glucose + 10% FBS, 0.000781 µM
[13] = RPMI 5 mM glucose + 10% FBS, 0.00234 µM
[14] = RPMI 5 mM glucose + 10% FBS, 0.00702 µM
[15] = RPMI 5 mM glucose + 10% FBS, 0.0211 µM
[16] = RPMI 5 mM glucose + 10% FBS, 0.0632 µM
[17] = RPMI 5 mM glucose + 10% FBS, 0.19 µM
[18] = RPMI 5 mM glucose + 10% FBS, 0.569 µM
[19] = RPMI 5 mM glucose + 10% FBS, 1.71 µM
[20] = RPMI 5 mM glucose + 10% FBS, 5.12 µM
[21] = RPMI 5 mM glucose + 10% FBS, 15.4 µM
[22] = RPMI 5 mM glucose + 10% FBS, 46.1 µM
[23] = RPMI 5 mM glucose + 10% dialyzed FBS, 0.000781 µM
[24] = RPMI 5 mM glucose + 10% dialyzed FBS, 0.00234 µM
[25] = RPMI 5 mM glucose + 10% dialyzed FBS, 0.00702 µM
[26] = RPMI 5 mM glucose + 10% dialyzed FBS, 0.0211 µM
[27] = RPMI 5 mM glucose + 10% dialyzed FBS, 0.0632 µM
[28] = RPMI 5 mM glucose + 10% dialyzed FBS, 0.19 µM
[29] = RPMI 5 mM glucose + 10% dialyzed FBS, 0.569 µM
[30] = RPMI 5 mM glucose + 10% dialyzed FBS, 1.71 µM
[31] = RPMI 5 mM glucose + 10% dialyzed FBS, 5.12 µM
[32] = RPMI 5 mM glucose + 10% dialyzed FBS, 15.4 µM
[33] = RPMI 5 mM glucose + 10% dialyzed FBS, 46.1 µM

Structure (SMILES) | cell viability [1] [%] | cell viability [2] [%] | cell viability [3] [%] | cell viability [4] [%] | cell viability [5] [%] | cell viability [6] [%] | cell viability [7] [%] | cell viability [8] [%] | cell viability [9] [%] | cell viability [10] [%] | cell viability [11] [%] | cell viability [12] [%] | cell viability [13] [%] | cell viability [14] [%] | cell viability [15] [%] | cell viability [16] [%] | cell viability [17] [%] | cell viability [18] [%] | cell viability [19] [%] | cell viability [20] [%] | cell viability [21] [%] | cell viability [22] [%] | cell viability [23] [%] | cell viability [24] [%] | cell viability [25] [%] | cell viability [26] [%] | cell viability [27] [%] | cell viability [28] [%] | cell viability [29] [%] | cell viability [30] [%] | cell viability [31] [%] | cell viability [32] [%] | cell viability [33] [%]
CNC(=O)c1ccc2cc(C3(O)CCn4cncc43)ccc2c1 (configuration not stated) | 128 | 119 | 103 | 125 | 125 | 113 | 108 | 107 | 106 | 123 | 107 |  |  |  |  |  |  |  |  |  |  |  |  |  |  |  |  |  |  |  |  |  | 
Cc1coc2c1C(=O)C(=O)c1c-2ccc2c(C)cccc12 |  |  |  |  |  |  |  |  |  |  |  | 91.4 | 79.7 | 107 | 12.8 | 91.3 | 80.1 | 90.3 | 78 | 72.8 | 54 | 48.6 | 112 | 117 | 135 | 19.3 | 112 | 115 | 98 | 102 | 106 | 86.4 | 75.3
COC\1=C(/OC)C(=O)\C(=C(C)/C1=O)CCCCCCCCCCO | 97.8 | 92 | 92.4 | 120 | 119 | 132 | 133 | 99 | 119 | 112 | 90.8 | 109 | 109 | 127 | 105 | 132 | 136 | 124 | 112 | 136 | 123 | 90.6 | 122 | 129 | 123 | 115 | 129 | 125 | 137 | 113 | 141 | 98.6 | 68.3
O=C1c2ccccc2-[n+]2ccc3c([nH]c4ccccc43)c21 | 91 | 89.3 | 102 | 77.2 | 70.7 | 73.6 | 68 | 55.8 | 19.6 | 3.74 | 2.58 | 116 | 109 | 102 | 92.1 | 78.2 | 92.7 | 85.7 | 59.6 | 32.3 | 3.62 | 2.81 | 92.7 | 98 | 91.9 | 80.2 | 87.4 | 84.9 | 65.4 | 58.1 | 32.6 | 3.56 | 2.5
COCC1(CO)C(=O)C2CCN1CC2 (configuration not stated) | 76.2 | 81.7 | 112 | 93.8 | 96.3 | 104 | 4.05 | 73.6 | 87.1 | 71 | 10.3 | 102 | 105 | 137 | 134 | 137 | 144 | 3.64 | 111 | 99.3 | 77.2 | 5.79 | 70.2 | 85.2 | 118 | 105 | 124 | 116 | 3.95 | 90.6 | 103 | 61.8 | 16.9
Cc1ccccc1C(=O)c1ccc(Nc2ccc(Br)cc2N)cc1Cl |  |  |  |  |  |  |  |  |  |  |  | 96 | 106 | 97.7 | 17.3 | 109 | 123 | 112 | 107 | 106 | 83.2 | 18.2 | 117 | 121 | 123 | 21.4 | 112 | 102 | 116 | 110 | 122 | 86.3 | 21.4
Cc1onc(-c2ccccc2Cl)c1C(=O)N[C@@H]1C(=O)N2[C@@H]1SC(C)(C)[C@@H]2C(=O)[O-] | 82.3 | 77.1 | 89.4 | 97.7 | 72 | 88.2 | 83.5 | 81.7 | 80.2 | 84.8 | 90 | 117 | 110 | 117 | 109 | 101 | 102 | 83.8 | 116 | 110 | 99.4 | 85.7 | 102 | 110 | 119 | 115 | 107 | 115 | 96.3 | 113 | 99.9 | 104 | 108
C[C@](O)(CS(=O)(=O)c1ccc(F)cc1)C(=O)Nc1ccc(C#N)c(C(F)(F)F)c1 | 93.9 | 108 | 104 | 89.4 | 116 | 112 | 114 | 116 | 105 | 109 | 93.4 | 81.3 | 101 | 99.7 | 74.3 | 88.6 | 97.2 | 102 | 88.4 | 93 | 91 | 75.3 | 105 | 113 | 116 | 73.4 | 119 | 111 | 132 | 122 | 96.1 | 97.5 | 72.7
Clc1ccc(-c2nc3sccn3c2/C=N/OCc2ccc(Cl)c(Cl)c2)cc1 | 127 | 122 | 101 | 119 | 124 | 111 | 115 | 88.5 | 100 | 101 | 117 |  |  |  |  |  |  |  |  |  |  |  | 131 | 122 | 111 | 137 | 120 | 134 | 135 | 104 | 113 | 110 | 115
